# From patent US12624122B2, “Affinity maturated TAG72 specific single chain antibodies” (H. Lee Moffitt Cancer Center and Research Institute, Inc., priority 2016, dated 2026)
# Columns and labels:
# Assay type in all cases: cell-based
# MCF-7 cells = assay: flow cytometry apoptosis (annexin V and PI), MCF-7 cells with human CD8 T cells
# From the text: (§1) FIGS. 5 to 96 are flow cytometry plots testing the disclosed bispecific antibodies. Table 1 summarizes flow cytometry results measuring apoptosis with annexin V and PI in gated populations of MCF-7 and MDA-231 cells treated with human CD8 T cells with bi-specific antibodies plus or minus the photosensitizing compound verteporfin.
# MDA-231 cells = assay: flow cytometry apoptosis (annexin V and PI), MDA-231 cells with human CD8 T cells
# From the text: as §1
# [1] = system: programmed cell death ligand 1 (PDL1); assay: tumor cell PDL1 surface expression
substance,measurement,setting,value
verteporfin [Vs],Control group (%) viable cells,MCF-7 cells; CD8 + Vs (1 μM),(19) %
same,Control group (%) viable cells,MCF-7 cells; CD8 + Vs (2 μM),(13.3) %
same,Control group (%) viable cells,MCF-7 cells; CD8 + Vs (5 μM),(7.51) %
same,Control group (%) viable cells,MDA-231 cells; CD8 + Vs (1 μM),(56.3) %
same,Control group (%) viable cells,MDA-231 cells; CD8 + Vs (2 μM),(57.4) %
same,Control group (%) viable cells,MDA-231 cells; CD8 + Vs (5 μM),(55.3) %
same,tumor cell PDL1 surface expression,[1],reduce tumor cell programmed cell death ligand 1 (PDL1) surface expression
